According to US6656690B2, “Mass spectrometric methods for biomolecular screening” (priority 1998, dated 2003):

Molecular target: 16S A site 27mer RNA
Assay: ESI-FTICR mass spectrometric (MASS) binding assay, 16S A-site 27-mer RNA model
Design: species or system prokaryotic
Description: The ESI-FTICR mass spectrum depicted in FIG. 26 was acquired from a […] mixture of untagged 16S and tagged 18S in the presence of an equimolar mixture of five aminoglycosides. It is to be understood that other biomolecules may be used in place of the aminoglycosides. The aminoglycosides have been selected from two classes of 2-deoxystreptamines: 4,5-disubstituted (paromomycin, and lividomycin), and 4,6-disubstituted (tobramycin, sisomicin, and bekanamycin), present at 500 nM each. Complexes corresponding to 1:1 binding of individual aminoglycosides were observed between 16S and all members of the aminoglycoside mixture, with the apparent affinities estimated from the abundances of the respective complexes differing substantially. Signal intensities from the complexes with paromomycin (m/z 1925.572) and lividomycin (m/z 1954.790) are consistent with MS-measured dissociation constants of 110 nM and 28 nM, respectively. The intensities of 16S complexes with tobramycin (m/z 1895.960), bekanamycin (m/z 1899.171), and sisomicin (m/z 1891.972) were reduced, consistent with solution dissociation constants of […]. Wang, et al., Biochemistry, 1997, 36, 768-779. […] The spectrum is calibrated using multiple isotope peaks of the (M-5H^+)^5− and (M-4H^+)^4− charge states of the free RNA as internal mass standards which brackets the m/z range in which complexes are observed. The average mass measurement error obtained for the complexes in FIG. 26 is 2.1 ppm when m/z differences are measured between the most abundant (4 ^13C) isotope peak of 16S and each complex. This post calibration scheme is easily automated which enables rapid, high precision mass measurements of affinity selected ligands against multiple targets in a high throughput mode.
A preferred first step of MASS screening involves mixing the RNA target (or targets) with a combinatorial library of ligands designed to bind to a specific site on the target molecule(s). Specific noncovalent complexes formed in solution between the target(s) and any library members are transferred into the gas phase and ionized by ESI. As described herein, from the measured mass difference between the complex and the free target, the identity of the binding ligand can be determined. The dissociation constant of the complex can be determined in two ways: if a ligand with a known binding affinity for the target is available, a relative Kd can be measured by using the known ligand as an internal control and measuring the abundance of the unknown complex to the abundance of the control, alternatively, if no internal control is available, Kd's can be determined by making a series of measurements at different ligand concentrations and deriving a Kd value from the “titration” curve.
Electrospray ionization Fourier transform ion cyclotron resonance mass spectrometry was performed on a solution containing […] 16S RNA (the 27-mer construct shown in FIG. 24) and 500 nM paromomycin is depicted in FIG. 13. A 1:1 complex was observed between the paromomycin and the RNA consistent with specific aminoglycoside binding at the A-site. The insets show the measured and calculated isotope envelopes of the (M-5H+)5− species of the free RNA and the RNA-paromomycin complex. High precision mass measurements were acquired using isotope peaks of the (M-5H+)^5− and (M-4H^+)^4− charge states of the free RNA as internal mass standards and measuring the m/z difference between the free and bound RNA.
ESI-MS measurements of a solution containing a fixed concentration of RNA at different concentrations of ligand were obtained. By measuring the ratio of bound:unbound RNA at varying ligand concentrations, the Kd was determined by 1/slope of the “titration curve”. The MS derived value of 110 nM is in good agreement with previously reported literature value of 200 nM. […]

In the case of `NC[C@@H]1O[C@H](O[C@H]2[C@@H](O)[C@H](O[C@@H]3[C@@H](O)[C@H](N)C[C@H](N)[C@H]3O[C@H]3O[C@H](CO)[C@@H](O)[C@H](O)[C@H]3N)O[C@@H]2CO)[C@H](N)[C@@H](O)[C@@H]1O` [paromomycin], the Kd (ESI-FTICR MS, 16S A site 27mer, read-out: MS-measured dissociation constant (KD)) is reported as 0.11 µM and the “complexes observed with 16S (in words)” value (aminoglycosides 500 nM each, mixture with untagged 16S and tagged 18S) is reported as 1:1 complex and High affinity complexes.
